{
  "source": "patent US4774248A",
  "about": "“Methods of treating depression and depressive states using 5-phenyl-1,4,5,6-tetrahydropyrimidine derivatives” (priority 1985, dated 1988)",
  "key": {"rats": {"system": "rats", "assay": "Overall behavior and reactivities in rats", "type": "in vivo", "conditions": "i.p.", "method_in_brief": "(§1)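 Male mice (20 ml/kg) and male rats (5 ml/kg) dosed intraperitoneally with compound in distilled water.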"}, "mice [1]": {"system": "mice", "assay": "Traction", "type": "in vivo", "conditions": "i.p.", "protocol": "(§2) The results of toxicological and neuropsychopharmacological tests which were carried out with the products according to the invention have been summarized below. In these tests, solutions of the said products in distilled water were administered intraperitoneally in a volume of 20 ml/kg to male mice and in a volume of 5 ml/kg to male rats.\n(§3) The test is performed on groups of 10 mice 30 minutes after the administration of CRL 41 378."}, "mice [2]": {"system": "mice", "assay": "Overall behavior and reactivities in mice", "type": "in vivo", "conditions": "i.p.", "method_in_brief": "as §1"}, "mice [3]": {"system": "mice", "assay": "Spontaneous motility (actimeter)", "type": "in vivo", "conditions": "i.p.", "protocol": "as §2\n0.5 h after they have received CRL 41 378, the mice (6 per dose, 12 control animals) are placed in an actimeter, where their motility is recorded for 30 minutes."}, "mice [4]": {"system": "mice", "assay": "Electric shock", "type": "in vivo", "conditions": "i.p.", "protocol": "as §2, §3"}, "mice [5]": {"system": "mice", "assay": "Four plate test", "type": "in vivo", "conditions": "i.p.", "protocol": "as §2, §3"}, "anesthetized dogs [6]": {"system": "anesthetized dogs", "assay": "Cardiovascular study in anesthetized dogs", "type": "in vivo"}, "mice [7]": {"system": "mice", "assay": "Motility reduced by habituation to the enclosure", "type": "in vivo", "conditions": "i.p.", "protocol": "as §2\nAfter they have stayed in the actimeters for 18 hours, the mice (6 per dose, 12 control animals) receive CRL 41 378. They are immediately returned to their respective enclosures and, half an hour later, their motility is recorded for 30 minutes."}, "mice [8]": {"system": "mice", "assay": "Intergroup aggressiveness", "type": "in vivo", "conditions": "mice, i.p.", "method_in_brief": "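Male mice housed 3 weeks per group in cage halves split by an opaque partition; groups of 3 given CRL 41 378 i.p. in distilled water.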"}, "[9]": {"system": "hypothermia, righting behavior and stereotypies induced by apomorphine", "assay": "Interaction with apomorphine in mice", "type": "in vivo", "method_in_brief": "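Male mice, groups of 6, given test compound intraperitoneally in distilled water (20 ml/kg) 30 min before subcutaneous apomorphine at 1 or 16 mg/kg. Hypothermia, righting behaviour and stereotypies scored.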"}, "[10]": {"system": "central nervous system (CNS)", "assay": "Neuropsychopharmacological profile (conclusions of the tests)", "type": "in vivo, mice and rats", "conditions": "i.p.", "protocol": "as §2"}, "[11]": {"system": "sleep induced by barbital", "assay": "Interaction with barbital", "type": "in vivo", "conditions": "mice, i.p.; barbital 220 mg/kg", "protocol": "as §2\nHalf an hour after the administration of CRL 41 378, groups of 10 mice receive an intraperitoneal injection of barbital (220 mg/kg)."}, "[12]": {"system": "stereotypies induced by apomorphine", "assay": "Interaction with apomorphine in rats", "type": "in vivo", "conditions": "i.p., apomorphine 0.5 mg/kg s.c.", "protocol": "as §2\nCRL 41 378 is administered to groups of 12 rats 0.5 h before the subcutaneous injection of 0.5 mg/kg of apomorphine."}, "[13]": {"system": "hypothermia, trembling and peripheral cholinergic symptoms induced by oxotremorine", "assay": "Interaction with oxotremorine", "type": "in vivo", "conditions": "mice, i.p.", "method_in_brief": "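Male mice, groups of 6, given the compound intraperitoneally in distilled water (20 ml/kg) 0.5 h before 0.5 mg/kg oxotremorine i.p. Hypothermia, trembling and peripheral cholinergic symptoms were assessed.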"}, "mice [14]": {"system": "mice", "assay": "Asphyxiant anoxia caused by gallamine triiodoethylate", "type": "in vivo", "conditions": "i.p., gallamine triiodoethylate 32 mg/kg", "protocol": "as §2\nGroups of 10 mice receive CRL 41 378 30 minutes before the intraperitoneal administration of 32 mg/kg of gallamine triiodoethylate (reference curarizing agent)."}, "[15]": {"system": "trembling and head twitches induced by 5-hydroxytryptophan (5-HTP)", "assay": "Interaction with 5-hydroxytryptophan in association with an MAOI (nialamide)", "type": "in vivo, male mice", "method_in_brief": "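Male mice (groups of 10) got nialamide 20 mg/kg intragastric at T-18 h, test product i.p. in water at T-0.5 h, then (±)-5-HTP 20 mg/kg i.p. at T. Generalized trembling, partial trembling and head twitches scored yes/no over 2 h.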"}, "anesthetized dogs [16]": {"system": "anesthetized dogs", "assay": "Cardiovascular study in anesthetized dogs", "type": "in vivo", "protocol": "Groups of 2 adult dogs (each weighing 10 to 18 kg), anesthetized with nembutal, receive each test product (i) by intraduodenal administration at successive doses of 0.1 mg/kg, 0.5 mg/kg, 1 mg/kg, 2.5 mg/kg, 5 mg/kb, 10 mg/kg and 20 mg/kg, and then (ii) if appropriate, by intravenous administration at a dose of 10 mg/kg. The effects of 10 μg/kg of isoprenaline and/or 2 μg/kg of norepinephrine after the intraduodenal administration of a cumulative dose of 39.1 mg/kg are also assessed.\nThe following are measured: the total arterial blood pressure, the diastolic arterial blood pressure, the heart rate, the blood flows through the femoral and cerebral arteries and saphenous veins, the rectal temperature, the skin temperature and the pressure of the gases (essentially O2) dissolved in the arterial blood.", "remark": "listed apart in the source"}, "[17]": {"conditions": "i.p., nialamide + (±)-5-HTP, male mice"}},
  "note": "Entries after “also recorded” stand apart in the source; their conditions may differ.",
  "data": [
    {"smiles": "Cl.OC1(c2ccccc2)CN=CNC1", "note": "(stereo not drawn) [CRL 41 382, 5-hydroxy-5-phenyl-1,4,5,6-tetrahydropyrimidine hydrochloride]", "values": [
      {"measurement": "overall behavior and reactivities", "setting": "rats; 0.5 mg/kg, 2 mg/kg and 8 mg/kg", "result": "behavior, reactivities and variations in the pupil diameter and rectal temperature which are analogous to those of the control group"},
      {"measurement": "overall behavior and reactivities", "setting": "rats; 32 mg/kg", "result": "moderate mydriasis for 1 h"},
      {"measurement": "motor incoordination / incapacity", "setting": "mice [1]", "result": "does not cause major motor incapacity"},
      {"measurement": "overall behavior and reactivities", "setting": "mice [2]; 1 mg/kg, 4 mg/kg and 16 mg/kg", "result": "no distinct modification of the behavior and reactivities compared with the control animals"},
      {"measurement": "overall behavior and reactivities", "setting": "mice [2]; 64 mg/kg, hydrochloride", "result": "sedation for 1 h; also recorded: a decrease in the reactivity to touch and the fear reaction for 0.5 h"},
      {"measurement": "spontaneous motor activity", "setting": "mice [3]", "result": "does not modify the spontaneous motor activity of mice"},
      {"measurement": "lethal effects of electric shock", "setting": "mice [4]", "result": "aggravates (at a dose of 64 mg/kg) the lethal effects of electric shock"},
      {"measurement": "convulsant effects of electric shock", "setting": "mice [4]; hydrochloride", "result": "does not oppose the convulsant effects; also recorded: absence of any anticonvulsant action"},
      {"measurement": "number of punished passes", "setting": "mice [5]", "result": "practically no modification of the number of punished passes"},
      {"measurement": "blood flows through the femoral and vertebral arteries", "setting": "anesthetized dogs [6]; intraduodenal", "result": "decreases the blood flows through the femoral and vertebral arteries"},
      {"measurement": "blood flows through the femoral and vertebral arteries", "setting": "anesthetized dogs [6]; intravenous", "result": "decreases the blood flows through the femoral and vertebral arteries"},
      {"measurement": "resumption in the motor activity of mice accustomed to their enclosure", "setting": "mice [7]", "result": "does not cause a resumption in the motor activity of mice accustomed to their enclosure"},
      {"measurement": "intergroup aggressiveness (number of fights)", "setting": "mice [8]", "result": "practically no modification of the number of fights"},
      {"measurement": "minimal effective dose", "setting": "[9]; Mus musculus, ip, read-out: dose as from which the hypothermia induced by apomorphine is antagonized", "result": "≥ 1", "unit": "mg/kg"},
      {"measurement": "action on righting behavior and stereotypies due to apomorphine", "setting": "[9]; i.p.", "result": "practically no modification of the righting behavior and stereotypies"},
      {"measurement": "action on hypothermia induced by apomorphine", "setting": "[9]; i.p., hydrochloride", "result": "as from a dose of 1 mg/kg and especially at doses of 16 to 64 mg/kg, CRL 41 382 opposes the hypothermia induced by apomorphine; also recorded: antagonism of the hypothermia induced by apomorphine, oxotremorine and reserpine in mice"},
      {"measurement": "antidepressant effects", "setting": "[10]", "result": "antidepressant effects appearing as from the lowest doses used"},
      {"measurement": "peripheral anticholinergic activity", "setting": "[10]", "result": "absence of peripheral anticholinergic activity"},
      {"measurement": "sedative effects", "setting": "[10]", "result": "sedative effects appearing transiently at the highest doses used (with no detectable decrease in the motor activity)"},
      {"measurement": "stimulant effects", "setting": "[10]; hydrochloride", "result": "absence of any motor stimulation; also recorded: absence of stimulant effects"},
      {"measurement": "duration of the sleep induced by barbital", "setting": "[11]", "result": "practically no modification of the duration of the sleep induced by barbital"},
      {"measurement": "action on stereotypies induced by apomorphine", "setting": "[12]", "result": "practically no modification of the stereotypies induced by apomorphine"},
      {"measurement": "minimal effective dose", "setting": "[13]; Mus musculus, ip, read-out: dose as from which the hypothermia induced by oxotremorine is antagonized", "result": "≥ 1", "unit": "mg/kg"},
      {"measurement": "action on signs of peripheral cholinergic stimulation induced by oxotremorine", "setting": "[13]; oxotremorine 0.5 mg/kg", "result": "practically no modification of the trembling or the signs of peripheral cholinergic stimulation due to oxotremorine"},
      {"measurement": "action on trembling induced by oxotremorine", "setting": "[13]; oxotremorine 0.5 mg/kg", "result": "practically no modification of the trembling"},
      {"measurement": "action on hypothermia induced by oxotremorine", "setting": "[13]; oxotremorine 0.5 mg/kg, hydrochloride", "result": "the antagonism is very intense at a dose of 64 mg/kg; also recorded: antagonism of the hypothermia induced by apomorphine, oxotremorine and reserpine in mice"},
      {"measurement": "time taken for convulsions and death / lethal effects of gallamine triiodoethylate", "setting": "mice [14]", "result": "practically no modification of the time taken for convulsions and death to occur"},
      {"measurement": "analogy with β-adrenergic stimulants in the 5-HTP procedure", "setting": "[15]; 5-HTP + MAOI", "result": "more closely resembles ritodrine or salbutamol"},
      {"measurement": "head twitches", "setting": "[15]; [17]", "result": "practically no modification of the head twitches"},
      {"measurement": "partial trembling", "setting": "[15]; [17]", "result": "moderate potentiation of the partial trembling"},
      {"measurement": "rectal temperature", "setting": "anesthetized dogs [16]", "result": "increases the rectal temperature"},
      {"measurement": "skin temperature", "setting": "anesthetized dogs [16]", "result": "decreases the blood flows through the femoral and vertebral arteries and also the skin temperature"},
      {"measurement": "α-adrenergic stimulant effect", "setting": "anesthetized dogs [16]", "result": "seems to have an α-adrenergic stimulant effect"},
      {"measurement": "arterial blood pressure", "setting": "anesthetized dogs [16]; intraduodenal", "result": "hypertensive"},
      {"measurement": "heart rate", "setting": "anesthetized dogs [16]; intraduodenal", "result": "practically no effect on the heart rate"},
      {"measurement": "arterial blood pressure", "setting": "anesthetized dogs [16]; intravenous", "result": "hypotensive"},
      {"measurement": "heart rate", "setting": "anesthetized dogs [16]; intravenous", "result": "bradycardic"},
      {"measurement": "effects of isoprenaline", "setting": "anesthetized dogs [16]; isoprenaline 10 μg/kg", "result": "does not modify the effects of isoprenaline"},
      {"measurement": "hypertension induced by norepinephrine", "setting": "anesthetized dogs [16]; norepinephrine 2 μg/kg", "result": "increases the hypertension caused by norepinephrine"}
    ]}
  ]
}
